These are literature values, as cited in patent publication US10858659B2, “Biosynthetic gene cluster of carrimycin” (SHENYANG FUYANG PHARMACEUTICAL TECHNOLOGY CO., LTD., priority 2015, dated 2020).

For data set [1] the following is noted: in vivo.

With Carrimycin, the in-vivo retention time entry is listed as “long”. Also, where the note is “in vivo”, the absolute bioavailability result is “high”, the elimination half-life entry is given as “long”, the “tissue concentration compared with blood plasma concentration” value was “higher than blood plasma concentration” and the tissue distribution entry is “wide”. In addition, the tissue penetrability result (in vivo) is recorded as “high”. Further, where the note is “in vivo, po”, the “oral administration absorption speed” value is “high”. Also, in data set [1], the adverse reaction rate result was “low”, the injury to livers result is “little” and the safety entry is on record as “good”.
